Experimental data as given in ChEMBL document CHEMBL1926601, “Persipeptides A and B, two cyclic peptides from Streptomyces sp. UTMC 1154” (Bioorg Med Chem, 2012).
Activity calls are given as the source filed them. The calls are words filed in the database; no cut-off is given here. Square brackets hold non-standard residues; d marks the D form. Peptide text beside a SMILES is read from it. NMeF = CN[C@@H](Cc1ccccc1)C(=O)O; NMeV = CN[C@H](C(=O)O)C(C)C

Legend:
Staphylococcus aureus [1] = assay: Antimicrobial activity against Staphylococcus aureus at 100 ug/ml by agar diffusion test; format: functional, organism-based
Staphylococcus aureus [2] = assay: Antimicrobial activity against methicillin-resistant Staphylococcus aureus at 100 ug/ml by agar diffusion test; format: functional, organism-based

Row | SMILES | Activity (Staphylococcus aureus [1]) | Activity (Staphylococcus aureus [2])
1 | CC(C)[C@@H]1NC(=O)[C@H](C(C)C)N(C)C(=O)[C@H](C(C)C)NC(=O)[C@H](Cc2ccccc2)N(C)C(=O)[C@H](Cc2ccccc2)NC1=O (cyclo(F[NMeF]V[NMeV]V)) | inactive | inactive
2 | CC(C)[C@@H]1NC(=O)[C@H](Cc2ccccc2)N(C)C(=O)[C@H](C(C)C)NC(=O)[C@H](C(C)C)N(C)C(=O)[C@H](Cc2ccccc2)NC1=O (cyclo(F[NMeV]V[NMeF]V)) | inactive | inactive
